According to US10647679B2, “N-methyl-D-aspartate receptor (NMDAR) potentiators, pharmaceutical compositions, and uses related thereto” (Emory University, priority 2015, dated 2020):
Like-named read-outs stand apart in the source and are kept apart here.

Experiments:
Type in all cases: cell-based
[1] = biological target: T1, recombinant rat GluN1/GluN2C (Rattus norvegicus, UniProt Q00961); assay: Two-electrode voltage-clamp (TEVC) recordings in Xenopus laevis oocytes, GluN1/GluN2C; conditions: for I30 μM/Icontrol (mean ± SEM, %) GluN2C: 30 μM compound, Tables 5-7
T1 construct: expressed in transfected cells; host or cells: Xenopus laevis oocytes (Ecocyte) injected with in vitro transcribed cRNA
Method: (§1) Data are from between 3-26 oocytes from 2-5 frogs for each compound and receptor tested.
(§2) Two-electrode voltage-clamp recordings were performed in Xenopus laevis oocytes (Ecocyte) expressing recombinant rat GluN1/GluN2A, GluN1/GluN2B, GluN1/GluN2C, GluN1/GluN2D. cRNA was transcribed in vitro (Ambion), diluted with nuclease free water, and injected at a ratio of 1:2 GluN1:GluN2 (5-10 ng total cRNA). The oocytes were kept in Barth's solution comprised of (in mM) 88 NaCl, 5 Tris-HCl, 2.4 NaHCO3, 1 KCl, 0.84 MgSO4, 0.41 CaCl2, and 0.33 Ca(NO3)2 at pH 7.4 at 15-17° C. for two to five days before experiments. Oocytes were placed into a perfusion chamber and continually washed with recording solution containing (in mM) 90 NaCl, 1.0 KCl, 0.5 BaCl2, 0.005 EDTA, and 10 HEPES at pH 7.4 (23° C.). Voltage clamp recordings were conducted at a holding potential of −40 mV. All compounds were made as 20 mM stock solutions in DMSO and dissolved to reach the final concentration in recording solution. Final DMSO content was 0.05-0.5% (vol/vol). Some oocytes expressing GluN1/GluN2A were pretreated with […] BAPTA-AM for 10 minutes or injected with […] of 2 mM K-BAPTA to prevent gradual run-up of the current response.

[2] = biological target: T2, recombinant rat GluN1/GluN2C (Rattus norvegicus, UniProt P35439+Q00961); assay: as above
T2 construct: expressed in transfected cells; host or cells: Xenopus laevis oocytes (Ecocyte) injected with in vitro transcribed cRNA
Method: as §1, §2

[3] = biological target: T3, recombinant rat GluN1/GluN2B (Rattus norvegicus, UniProt P35439+Q00960); assay: Two-electrode voltage-clamp (TEVC) recordings in Xenopus laevis oocytes, GluN1/GluN2B
T3 construct: expressed in transfected cells; host or cells: Xenopus laevis oocytes (Ecocyte) injected with in vitro transcribed cRNA
Method: as §1, §2

[4] = biological target: T4, recombinant rat GluN1/GluN2B (Rattus norvegicus, UniProt Q00960); assay: as above; conditions: for I30 μM/Icontrol (mean ± SEM, %) GluN2B: 30 μM compound, Tables 5-7
T4 construct: expressed in transfected cells; host or cells: Xenopus laevis oocytes (Ecocyte) injected with in vitro transcribed cRNA
Method: as §1, §2

[5] = biological target: T5, recombinant rat GluN1/GluN2D (Rattus norvegicus, UniProt Q62645); assay: Two-electrode voltage-clamp (TEVC) recordings in Xenopus laevis oocytes, GluN1/GluN2D; conditions: for I30 μM/Icontrol (mean ± SEM, %) GluN2D: 30 μM compound, Tables 5-7
T5 construct: expressed in transfected cells; host or cells: Xenopus laevis oocytes (Ecocyte) injected with in vitro transcribed cRNA
Method: as §1, §2

[6] = biological target: T6, recombinant rat GluN1/GluN2D (Rattus norvegicus, UniProt P35439+Q62645); assay: as above
T6 construct: expressed in transfected cells; host or cells: Xenopus laevis oocytes (Ecocyte) injected with in vitro transcribed cRNA
Method: as §1, §2

[7] = maximum potentiation, response without modulator = 100%, read-out: GluN2C EC50 (μM)/Max %: Max %
[8] = percentage of the initial glutamate (100 μM) and glycine (30 μM) current, read-out: EC50 (max.) (μM %) GluN2C: fitted maximum response
[9] = fitted when potentiation at 30 μM exceeded 120%, Tables 3, 5-7, read-out: EC50 (max.) (μM %) GluN2B: fitted EC50
[10] = maximum potentiation, response without modulator = 100%, read-out: GluN2B EC50 (μM)/Max %: Max %
[11] = percentage of the initial glutamate (100 μM) and glycine (30 μM) current, read-out: EC50 (max.) (μM %) GluN2B: fitted maximum response
[12] = percentage of the initial glutamate (100 μM) and glycine (30 μM) current, read-out: EC50 (max.) (μM %) GluN2D: fitted maximum response
[13] = fitted when potentiation at 30 μM exceeded 120%, Tables 3, 5-7, read-out: EC50 (max.) (μM %) GluN2C: fitted EC50
[14] = maximum potentiation, response without modulator = 100%, read-out: GluN2D EC50 (μM)/Max %: Max %
[15] = untitled tables after drawing 25 and drawing 36, read-out: EC50 (μM) GluN2C
[16] = untitled tables after drawing 25 and drawing 36, read-out: EC50 (μM) GluN2D

T2 sequence (Q00961 20-1237, other chains not shown): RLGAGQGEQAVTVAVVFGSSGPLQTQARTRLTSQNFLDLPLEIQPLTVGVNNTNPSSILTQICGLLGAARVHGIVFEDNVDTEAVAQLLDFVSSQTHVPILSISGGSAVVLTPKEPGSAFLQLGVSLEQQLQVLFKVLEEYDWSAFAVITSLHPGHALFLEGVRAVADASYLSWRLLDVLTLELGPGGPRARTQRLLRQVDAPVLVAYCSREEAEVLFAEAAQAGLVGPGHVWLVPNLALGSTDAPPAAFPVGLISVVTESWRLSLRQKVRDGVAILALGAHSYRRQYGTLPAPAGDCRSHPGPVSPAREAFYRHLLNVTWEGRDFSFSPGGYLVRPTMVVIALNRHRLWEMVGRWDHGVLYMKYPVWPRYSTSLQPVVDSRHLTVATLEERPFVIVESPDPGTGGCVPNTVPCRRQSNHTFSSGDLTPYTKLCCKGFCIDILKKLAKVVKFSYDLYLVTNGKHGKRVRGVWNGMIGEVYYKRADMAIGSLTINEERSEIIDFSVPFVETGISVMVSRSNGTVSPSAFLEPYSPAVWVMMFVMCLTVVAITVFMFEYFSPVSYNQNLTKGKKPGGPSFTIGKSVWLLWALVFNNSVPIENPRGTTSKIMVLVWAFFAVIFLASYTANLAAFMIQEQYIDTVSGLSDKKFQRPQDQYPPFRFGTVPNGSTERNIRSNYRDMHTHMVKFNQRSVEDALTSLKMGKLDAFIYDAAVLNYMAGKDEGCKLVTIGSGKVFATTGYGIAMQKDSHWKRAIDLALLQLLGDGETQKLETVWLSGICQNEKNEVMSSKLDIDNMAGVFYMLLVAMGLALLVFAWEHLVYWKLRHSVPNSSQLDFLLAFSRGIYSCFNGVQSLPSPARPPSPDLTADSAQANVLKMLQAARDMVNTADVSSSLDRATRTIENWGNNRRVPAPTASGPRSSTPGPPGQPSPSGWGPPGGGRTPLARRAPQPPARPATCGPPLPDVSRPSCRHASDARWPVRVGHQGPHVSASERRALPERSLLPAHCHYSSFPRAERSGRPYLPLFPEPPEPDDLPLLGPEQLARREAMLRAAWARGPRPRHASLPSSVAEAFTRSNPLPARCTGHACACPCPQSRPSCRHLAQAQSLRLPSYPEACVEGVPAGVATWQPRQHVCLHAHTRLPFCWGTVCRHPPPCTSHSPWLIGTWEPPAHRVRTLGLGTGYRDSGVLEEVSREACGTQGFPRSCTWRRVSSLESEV
T1 sequence (Q00961 20-1237, other chains not shown): as above
T6 sequence (Q62645 28-1323, other chains not shown): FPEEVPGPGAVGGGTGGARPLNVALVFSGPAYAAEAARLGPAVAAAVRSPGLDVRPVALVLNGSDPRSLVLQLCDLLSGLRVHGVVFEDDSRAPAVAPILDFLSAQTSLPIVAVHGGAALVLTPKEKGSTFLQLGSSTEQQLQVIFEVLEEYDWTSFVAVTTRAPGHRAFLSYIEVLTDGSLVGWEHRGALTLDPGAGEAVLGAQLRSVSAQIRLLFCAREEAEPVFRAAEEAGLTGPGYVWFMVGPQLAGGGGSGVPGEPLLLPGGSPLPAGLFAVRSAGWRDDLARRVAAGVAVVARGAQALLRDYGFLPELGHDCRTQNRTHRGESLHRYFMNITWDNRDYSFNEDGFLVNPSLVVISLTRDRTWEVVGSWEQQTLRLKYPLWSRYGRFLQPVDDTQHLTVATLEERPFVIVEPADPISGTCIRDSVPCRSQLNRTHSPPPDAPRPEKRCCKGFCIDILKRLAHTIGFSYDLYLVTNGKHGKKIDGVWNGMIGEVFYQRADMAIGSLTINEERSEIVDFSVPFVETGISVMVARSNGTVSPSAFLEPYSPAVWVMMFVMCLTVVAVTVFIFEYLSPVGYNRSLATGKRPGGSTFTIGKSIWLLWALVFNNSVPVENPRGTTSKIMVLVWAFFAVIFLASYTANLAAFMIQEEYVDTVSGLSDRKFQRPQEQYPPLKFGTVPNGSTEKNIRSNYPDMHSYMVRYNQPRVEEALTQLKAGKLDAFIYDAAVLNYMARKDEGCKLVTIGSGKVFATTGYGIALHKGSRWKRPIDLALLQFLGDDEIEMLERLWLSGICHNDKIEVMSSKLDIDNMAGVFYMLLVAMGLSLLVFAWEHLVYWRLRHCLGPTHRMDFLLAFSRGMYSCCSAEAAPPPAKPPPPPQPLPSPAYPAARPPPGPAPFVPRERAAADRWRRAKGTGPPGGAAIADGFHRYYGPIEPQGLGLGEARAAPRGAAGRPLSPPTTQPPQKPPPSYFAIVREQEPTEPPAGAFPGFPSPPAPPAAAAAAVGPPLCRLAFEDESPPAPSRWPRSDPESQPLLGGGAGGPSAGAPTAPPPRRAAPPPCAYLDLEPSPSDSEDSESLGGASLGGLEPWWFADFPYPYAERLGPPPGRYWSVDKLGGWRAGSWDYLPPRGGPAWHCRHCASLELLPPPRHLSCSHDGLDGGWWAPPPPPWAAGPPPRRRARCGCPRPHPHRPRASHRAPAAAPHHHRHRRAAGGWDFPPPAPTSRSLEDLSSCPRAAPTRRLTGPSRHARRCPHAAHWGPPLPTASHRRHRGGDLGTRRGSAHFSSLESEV
T5 sequence (Q62645 28-1323, other chains not shown): as above
T3 sequence (Q00960 27-1482, other chains not shown): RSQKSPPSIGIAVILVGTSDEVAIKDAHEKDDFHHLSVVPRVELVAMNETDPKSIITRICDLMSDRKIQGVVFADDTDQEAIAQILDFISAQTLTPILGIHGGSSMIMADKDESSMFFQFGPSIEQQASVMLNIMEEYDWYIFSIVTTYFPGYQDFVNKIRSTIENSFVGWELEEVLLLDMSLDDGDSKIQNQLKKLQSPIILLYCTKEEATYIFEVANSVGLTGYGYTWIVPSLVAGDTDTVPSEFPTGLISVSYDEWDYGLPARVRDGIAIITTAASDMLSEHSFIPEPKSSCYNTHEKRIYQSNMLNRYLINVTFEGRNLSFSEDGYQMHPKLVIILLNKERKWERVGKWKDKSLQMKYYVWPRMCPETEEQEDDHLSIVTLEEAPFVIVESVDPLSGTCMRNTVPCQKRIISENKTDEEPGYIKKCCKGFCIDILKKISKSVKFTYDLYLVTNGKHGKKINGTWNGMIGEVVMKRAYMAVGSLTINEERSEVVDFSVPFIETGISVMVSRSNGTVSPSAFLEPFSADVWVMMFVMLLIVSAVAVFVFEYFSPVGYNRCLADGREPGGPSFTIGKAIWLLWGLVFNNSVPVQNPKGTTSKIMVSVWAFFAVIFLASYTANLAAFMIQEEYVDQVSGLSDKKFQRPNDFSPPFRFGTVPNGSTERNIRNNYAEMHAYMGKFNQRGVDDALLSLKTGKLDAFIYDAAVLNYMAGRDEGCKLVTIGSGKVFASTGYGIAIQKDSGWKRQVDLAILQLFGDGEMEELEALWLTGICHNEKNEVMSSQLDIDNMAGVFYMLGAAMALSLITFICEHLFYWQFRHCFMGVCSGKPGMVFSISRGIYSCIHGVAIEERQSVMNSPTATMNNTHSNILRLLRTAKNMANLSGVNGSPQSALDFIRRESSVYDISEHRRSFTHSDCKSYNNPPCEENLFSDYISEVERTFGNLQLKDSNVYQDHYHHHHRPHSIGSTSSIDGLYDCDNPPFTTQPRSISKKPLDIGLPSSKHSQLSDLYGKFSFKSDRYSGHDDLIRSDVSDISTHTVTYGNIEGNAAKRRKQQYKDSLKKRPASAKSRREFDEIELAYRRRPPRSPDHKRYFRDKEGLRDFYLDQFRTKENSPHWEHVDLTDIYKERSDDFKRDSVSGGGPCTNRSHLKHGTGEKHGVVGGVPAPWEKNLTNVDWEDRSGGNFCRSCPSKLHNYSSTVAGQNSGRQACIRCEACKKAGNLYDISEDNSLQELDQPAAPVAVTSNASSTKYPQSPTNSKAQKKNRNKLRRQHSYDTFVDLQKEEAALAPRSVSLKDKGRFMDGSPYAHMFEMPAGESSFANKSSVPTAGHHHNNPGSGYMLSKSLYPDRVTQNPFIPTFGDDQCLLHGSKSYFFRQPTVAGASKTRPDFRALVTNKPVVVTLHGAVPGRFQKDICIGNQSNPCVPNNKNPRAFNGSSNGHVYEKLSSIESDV

COc1ccc(OCC2c3ccc(OC(C)C)cc3CCN2C(=O)c2cccc(Cl)c2)cc1 (stereo not drawn) [1180-55]
I10 μM/Icontrol (mean ± SEM, %) GluN2C ([1]; 10 μM compound, Table 3): 231%
Emax [2, 7]: 266%
Emax [2, 8]: 250%
Emax ([2]; read-out: EC50 & Max Effect: 2C Max (%)): 266%
EC50 [3, 9]: 5 µM
Emax [3, 10]: 193%
Emax [3, 11]: 215%
I10 μM/Icontrol (mean ± SEM, %) GluN2B ([4]; 10 μM compound, Table 3): 191%
I10 μM/Icontrol (mean ± SEM, %) GluN2D ([5]; 10 μM compound, Table 3): 281%
EC50 ([6]; EC50 & Max Effect: 2D (μM)): 2.9 µM
EC50 ([6]; fitted when potentiation at 30 μM exceeded 120%, Tables 3, 5-7, read-out: EC50 (max.) (μM %) GluN2D: fitted EC50): 4.3 µM
Emax [6, 12]: 323%

CCOc1ccc(OCC2c3ccc(OC(C)C)cc3CCN2C(=O)c2ccc(Cl)c(Cl)c2)cc1 (stereo not drawn) [1180-103]
I30 μM/Icontrol (mean ± SEM, %) GluN2C [1]: 134%
EC50 [2, 13]: 0.65 µM
Emax [2, 7]: 137%
Emax [2, 8]: 139%
EC50 [3, 9]: 1.4 µM
Emax [3, 10]: 130%
Emax [3, 11]: 134%
I30 μM/Icontrol (mean ± SEM, %) GluN2B [4]: 120%
I30 μM/Icontrol (mean ± SEM, %) GluN2D [5]: 101%

COc1ccc(OCC2c3ccc(N(C)C)cc3CCN2C(=O)c2cccc(Cl)c2)cc1 (stereo not drawn) [1180-104]
Emax [2, 7]: 315%
Emax [3, 10]: 132%
Emax [6, 14]: 349%

CCOc1ccc(OCC2c3ccc(OC4CCCC4)cc3CCN2C(=O)c2cccc(F)c2)cc1 (stereo not drawn) [1180-112]
EC50 ([2]; Tables 11-13, read-out: EC50 & Max Effect: 2C): 4.1 µM
Emax ([2]; Tables 11-13, read-out: EC50 & Max Effect: 2C Max (%)): 170%
EC50 ([6]; Tables 11-13, read-out: EC50 & Max Effect: 2D): 4.2 µM
Emax ([6]; Tables 11-13, read-out: EC50 & Max Effect: 2D Max (%)): 157%

CCOc1ccc(OCC2c3ccc(OC(C)C)cc3CCN2C(=O)c2ccc(F)c(Cl)c2)cc1 (stereo not drawn) [1180-144]
Emax [2, 7]: 175%
Emax [3, 10]: 182%
Emax [6, 14]: 135%

CCOc1ccc(OCC2c3ccc(OC(C)C)cc3CCN2C(=S)c2cccc(Cl)c2)cc1 (stereo not drawn) [1180-149]
Emax [2, 7]: 179%
Emax [3, 10]: 184%
Emax [6, 14]: 145%

CCOc1ccc(OCC2c3ccc(OC(C)C)cc3CCN2C(=S)c2cccc(Br)c2)cc1 (stereo not drawn) [1180-156]
Emax [2, 7]: 161%
Emax [3, 10]: 187%
Emax [6, 14]: 130%

COc1ccc(OCC2c3ccc(N(C)C)cc3CCN2C(=S)c2cccc(Cl)c2)cc1 (stereo not drawn) [1180-167]
Emax [2, 7]: 134%
Emax [6, 14]: 127%

CCOc1ccc(OCC2c3ccc(OC(C)C)cc3CCN2C(=S)c2cccc(C(F)(F)F)c2)cc1 (stereo not drawn) [1180-168]
I30 μM/Icontrol (mean ± SEM, %) GluN2C [1]: 139%
EC50 [2, 13]: 0.33 µM
Emax [2, 7]: 138%
Emax [2, 8]: 141%
EC50 [3, 9]: 1 µM
Emax [3, 10]: 171%
Emax [3, 11]: 179%
I30 μM/Icontrol (mean ± SEM, %) GluN2B [4]: 185%
I30 μM/Icontrol (mean ± SEM, %) GluN2D [5]: 126%
Emax [6, 12]: 128%

CCOc1ccc(OCC2c3ccc(OC(C)C)cc3CCN2C(=S)Nc2cccc(Cl)c2)cc1 (stereo not drawn) [1180-210]
Emax [2, 7]: 173%
Emax [6, 14]: 174%

COc1ccc(OCC2c3ccc(OC)cc3CCN2C(=O)c2ccc(Cl)o2)cc1 (stereo not drawn) [1180-234]
EC50 [2, 15]: 2.6 µM
GluN2B response % at 30 µM [4]: 107% at 30
EC50 [6, 16]: 5.5 µM

COc1ccc(OCC2c3ccc(OC)cc3CCN2C(=O)c2ccc(Cl)s2)cc1 (stereo not drawn) [1180-239]
EC50 [2, 15]: 0.9 µM
EC50 ([3]; untitled tables after drawing 25 and drawing 36, read-out: EC50 (μM) GluN2B): 1.6 µM
EC50 [6, 16]: 1 µM

COc1ccc(OCC2c3ccc(OC)cc3CCN2C(=O)CCCC(F)(F)F)cc1 (stereo not drawn) [1180-252]
EC50 [2, 15]: 11 µM
GluN2B response % at 30 µM [4]: 96% at 30
EC50 [6, 16]: 14 µM
